The results in this text go back to US8163929B2, “Dihydropyridone amides as P2X7 modulators” (Roche Palo Alto LLC, priority 2008, dated 2012).

This assay addresses T1, P2X7 (UniProt Q99572).
T1 sequence (Q99572 1-595): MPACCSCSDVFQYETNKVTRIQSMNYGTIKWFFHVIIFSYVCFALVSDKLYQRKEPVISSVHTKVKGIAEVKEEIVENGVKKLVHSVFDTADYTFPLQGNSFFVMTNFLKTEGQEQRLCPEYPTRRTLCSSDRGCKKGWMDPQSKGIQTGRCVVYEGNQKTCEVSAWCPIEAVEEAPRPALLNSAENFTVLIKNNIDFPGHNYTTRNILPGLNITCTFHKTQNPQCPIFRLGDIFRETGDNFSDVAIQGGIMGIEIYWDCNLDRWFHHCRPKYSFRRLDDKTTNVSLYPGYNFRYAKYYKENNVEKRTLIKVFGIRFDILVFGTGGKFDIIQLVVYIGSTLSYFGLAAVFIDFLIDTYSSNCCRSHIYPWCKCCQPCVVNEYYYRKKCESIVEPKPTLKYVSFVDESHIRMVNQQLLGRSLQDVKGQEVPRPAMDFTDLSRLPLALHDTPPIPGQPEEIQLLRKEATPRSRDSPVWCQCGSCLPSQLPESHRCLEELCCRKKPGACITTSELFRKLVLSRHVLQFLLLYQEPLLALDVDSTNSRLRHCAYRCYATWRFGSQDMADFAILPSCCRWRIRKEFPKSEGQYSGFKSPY
Put plainly: P2X7 activity of Table 1. The assay is classed as cell-based. The settings on record: pIC50 values for P2X7. The procedure:
Stock solutions of compounds were prepared from powders as a 10 mM DMSO stock solution. These solutions were stored at RT during the two week period of these experiments to prevent freeze-thaw of the DMSO stocks. The DMSO stocks were added to the appropriate assay buffer at a concentration of 10 μM, and then diluted serially to the final concentrations that were tested. […] The aqueous solutions of compounds as well as ATP (Sigma A7699) and BzATP (Sigma B6396) were prepared fresh for each day of experiment.
1321N1 cells stably expressing the full length human P2X7 gene (1321N1-hP2X7) and HEK293 cells stably expressing the full length rat P2X7 gene (HEK293-rP2X7) were obtained from the Roche Cell Culture Facility. 1321N1-hP2X7 cells were grown in Dulbecco's Modified Eagle's Medium (DMEM) high glucose supplemented with 10% FBS and 250 μg/mL G418. HEK293-rP2X7 cells were grown in DMEM/F-12 supplemented with 10% FBS, 1 mM CaCl2, 2 mM MgCl2, 2 mM L-Glutamine and 500 μg/ml G418. Cells were split such that they never became >70% confluent.
On the day prior to the experiment, 1321N1-hP2X7 or HEK293-rP2X7 cells were released into suspension with calcium-free PBS+Versene and washed by centrifugation with calcium-free PBS to remove the Versene. Cells were resuspended in growth medium at a density of 2.5×10^5 cells/mL and seeded into black walled, clear bottom 96 well plates (50,000 cells/well) approximately 18 hr prior to intracellular calcium flux experiments.
On the day of the experiment, plates were washed with FLIPR buffer (calcium- and magnesium-free Hank's Balanced Salt Solution (HBSS) supplemented with 10 mM Hepes, 2.5 mM probenecid and 2 mM calcium chloride) using a BIO-TEK 96 channel plate washer and incubated with […] fluo-3 dye at 37° C. for one hr. The dye was then removed by plate washing and the cells were allowed to equilibrate for 20 min at room temperature with antagonist or vehicle (FLIPR buffer). Agonist (100 μM BzATP final concentration for hP2X7; 5 μM BzATP final concentration or rP2X7) was added online with the FLIPR and fluorescence measurements made at 1 sec intervals for 60 sec followed by 3 sec intervals for a further 4 min (5 min total). A final addition of 5 μM ionomycin was made and the maximal BzATP-evoked fluorescence normalized to the maximal ionomycin-evoked fluorescence.

In general, pIC50 refers to −log10 of the IC50, conventionally taken in molar units. The low end stands for a high IC50, the high end for a low IC50.

`Cc1ccc(-c2ccn(CCO)n2)cc1NC(=O)C1=CNC(=O)C[C@H]1c1cccc(Cl)c1` (stereo in doubt) [Compound 114, 4-(3-Chloro-phenyl)-6-oxo-1,4,5,6-tetrahydro-pyridine-3-carboxylic acid {5-[1-(2-hydroxy-ethyl)-1H-pyrazol-3-yl]-2-methyl-phenyl}-amide] came in with a pIC50 of 7.56.

In the case of `Cc1ccc(-n2cccc2)cc1NC(=O)C1=CNC(=O)CC1c1cccc(F)c1` (stereo not drawn) [Compound 1, 4-(3-Fluoro-phenyl)-6-oxo-1,4,5,6-tetrahydro-pyridine-3-carboxylic acid (2-methyl-5-pyrrol-1-yl-phenyl)-amide], the pIC50 is 6.985.

Regarding `Cc1ccc(-c2cc(C)n(CCO)n2)cc1NC(=O)C1=CNC(=O)C[C@H]1c1ccc(F)cc1` [Compound 2, (S)-4-(4-Fluoro-phenyl)-6-oxo-1,4,5,6-tetrahydro-pyridine-3-carboxylic acid {5-[1-(2-hydroxy-ethyl)-5-methyl-1H-pyrazol-3-yl]-2-methyl-phenyl}-amide], the pIC50 is on record as 7.735.

Consider `Cc1ccc(-c2nnn(C)n2)cc1NC(=O)C1=CNC(=O)C[C@H]1c1ccc(F)cc1` [Compound 3, (S)-4-(4-Fluoro-phenyl)-6-oxo-1,4,5,6-tetrahydro-pyridine-3-carboxylic acid [2-methyl-5-(2-methyl-2H-tetrazol-5-yl)-phenyl]-amide], for which the pIC50 was determined as 6.21.

As to `Cc1ccc(-c2cc(C)n(C)n2)cc1NC(=O)C1=CNC(=O)C[C@H]1c1ccc(F)cc1` [Compound 4, (S)-4-(4-Fluoro-phenyl)-6-oxo-1,4,5,6-tetrahydro-pyridine-3-carboxylic acid [5-(1,5-dimethyl-1H-pyrazol-3-yl)-2-methyl-phenyl]-amide], the pIC50 was found to be 7.715.

The compound `Cc1ccc(-c2cc[nH]n2)cc1NC(=O)C1=CNC(=O)C[C@H]1c1ccc(F)cc1` [Compound 5, (S)-4-(4-Fluoro-phenyl)-6-oxo-1,4,5,6-tetrahydro-pyridine-3-carboxylic acid [2-methyl-5-(1H-pyrazol-3-yl)-phenyl]-amide] had a pIC50 of 7.745.

`Cc1ccc(-c2ccc(C)c(NC(=O)C3=CNC(=O)C[C@H]3c3ccc(F)cc3)c2)nc1` [Compound 6, (S)-4-(4-Fluoro-phenyl)-6-oxo-1,4,5,6-tetrahydro-pyridine-3-carboxylic acid [2-methyl-5-(5-methyl-pyridin-2-yl)-phenyl]-amide] registered a pIC50 of 7.07.

The compound `Cc1ccc(-c2cc(C)n(CC(C)O)n2)cc1NC(=O)C1=CNC(=O)C[C@H]1c1ccc(F)cc1` (stereo partly drawn) [Compound 7, (S)-4-(4-Fluoro-phenyl)-6-oxo-1,4,5,6-tetrahydro-pyridine-3-carboxylic acid {5-[1-(2-hydroxy-propyl)-5-methyl-1H-pyrazol-3-yl]-2-methyl-phenyl}-amide] returned a pIC50 of 7.643.

`Cc1ccc(-c2ccnn2CC(C)C)cc1NC(=O)C1=CNC(=O)C[C@H]1c1ccc(F)cc1` [Compound 8, (S)-4-(4-Fluoro-phenyl)-6-oxo-1,4,5,6-tetrahydro-pyridine-3-carboxylic acid [5-(2-isobutyl-2H-pyrazol-3-yl)-2-methyl-phenyl]-amide] returned a pIC50 of 6.367.

As for `Cc1ccc(-c2nnnn2C)cc1NC(=O)C1=CNC(=O)C[C@H]1c1ccc(F)cc1` [Compound 9, (S)-4-(4-Fluoro-phenyl)-6-oxo-1,4,5,6-tetrahydro-pyridine-3-carboxylic acid [2-methyl-5-(1-methyl-1H-tetrazol-5-yl)-phenyl]-amide], the pIC50 is 6.1767. This pIC50 and that of the compound before are within 0.2 log units of each other.

As to `Cc1ccc(-c2ccc(C)c(NC(=O)C3=CNC(=O)C[C@H]3c3ccc(F)cc3)c2)cn1` [Compound 10, (S)-4-(4-Fluoro-phenyl)-6-oxo-1,4,5,6-tetrahydro-pyridine-3-carboxylic acid [2-methyl-5-(6-methyl-pyridin-3-yl)-phenyl]-amide], the pIC50 worked out at 6.653.

For the compound `Cc1ccc(-n2cccn2)cc1NC(=O)C1=CNC(=O)C[C@H]1c1ccc(F)cc1` [Compound 11, (S)-4-(4-Fluoro-phenyl)-6-oxo-1,4,5,6-tetrahydro-pyridine-3-carboxylic acid (2-methyl-5-pyrazol-1-yl-phenyl)-amide], the pIC50 was found to be 7.763.

In turn, `Cc1cc(-c2ccc(C)c(NC(=O)C3=CNC(=O)C[C@H]3c3ccc(F)cc3)c2)n(CCO)n1` [Compound 12, (S)-4-(4-Fluoro-phenyl)-6-oxo-1,4,5,6-tetrahydro-pyridine-3-carboyxlic acid {5-[2-(2-hydroxy-ethyl)-5-methyl-2H-pyrazol-3-yl]-2-methyl-phenyl}-amide] showed a pIC50 of 6.913.

The compound `Cc1ccc(-c2ccnn2C)cc1NC(=O)C1=CNC(=O)C[C@H]1c1ccc(F)cc1` [Compound 13, (S)-4-(4-Fluoro-phenyl)-6-oxo-1,4,5,6-tetrahydro-pyridine-3-carboxylic acid [2-methyl-5-(2-methyl-2H-pyrazol-3-yl)-phenyl]-amide] had a pIC50 of 7.033.

In turn, `CCc1cc(-c2ccc(C)c(NC(=O)C3=CNC(=O)C[C@H]3c3ccc(F)cc3)c2)[nH]n1` [Compound 14, (S)-4-(4-Fluoro-phenyl)-6-oxo-1,4,5,6-tetrahydro-pyridine-3-carboxylic acid [5-(5-ethyl-2H-pyrazol-3-yl)-2-methyl-phenyl]-amide] displayed a pIC50 of 6.913. The pIC50 values of the last two compounds are within 0.2 log units of each other.

Take `Cc1ccc(-c2[nH]nc(C)c2C)cc1NC(=O)C1=CNC(=O)C[C@H]1c1ccc(F)cc1` [Compound 15, (S)-4-(4-Fluoro-phenyl)-6-oxo-1,4,5,6-tetrahydro-pyridine-3-carboxylic acid [5-(4,5-dimethyl-2H-pyrazol-3-yl)-2-methyl-phenyl]-amide]: the pIC50 was 7.79.

In turn, `Cc1ccc(-n2ncc(=O)[nH]c2=O)cc1NC(=O)C1=CNC(=O)C[C@H]1c1ccc(F)cc1` [Compound 16, (S)-4-(4-Fluoro-phenyl)-6-oxo-1,4,5,6-tetrahydro-pyridine-3-carboxylic acid [5-(3,5-dioxo-4,5-dihydro-3H-[1,2,4]triazin-2-yl)-2-methyl-phenyl]-amide] displayed a pIC50 of 7.23.

With `CCc1cc(-c2cccc(NC(=O)C3=CNC(=O)C[C@H]3c3ccc(F)cc3)c2)n[nH]1` [Compound 17, (S)-4-(4-Fluoro-phenyl)-6-oxo-1,4,5,6-tetrahydro-pyridine-3-carboxylic acid [3-(5-ethyl-1H-pyrazol-3-yl)-phenyl]-amide], the pIC50 is 6.073.

Consider `Cc1cc(-c2cccc(NC(=O)C3=CNC(=O)C[C@H]3c3ccc(F)cc3)c2)nn1C` [Compound 18, (S)-4-(4-Fluoro-phenyl)-6-oxo-1,4,5,6-tetrahydro-pyridine-3-carboxylic acid [3-(1,5-dimethyl-1H-pyrazol-3-yl)-phenyl]-amide], for which the pIC50 is 5.72.

The compound `Cc1ccc(-c2cc(C)n(C[C@@H](O)CO)n2)cc1NC(=O)C1=CNC(=O)C[C@H]1c1ccc(F)cc1` [Compound 19, (S)-4-(4-Fluoro-phenyl)-6-oxo-1,4,5,6-tetrahydro-pyridine-3-carboxylic acid {5-[1-((R)-2,3-dihydroxy-propyl)-5-methyl-1H-pyrazol-3-yl]-2-methyl-phenyl}-amide] yielded a pIC50 of 7.423.

Compound `Cc1cc(-c2cccc(NC(=O)C3=CNC(=O)C[C@H]3c3ccc(F)cc3)c2)n(C)n1` [Compound 20, (S)-4-(4-Fluoro-phenyl)-6-oxo-1,4,5,6-tetrahydro-pyridine-3-carboxylic acid [3-(2,5-dimethyl-2H-pyrazol-3-yl)-phenyl]-amide] came in with a pIC50 of 5.31.
